The subject of this experiment is ATF4 luciferase reporter in HEK293T cells. Nature of the experiment: ATF4-Luc assay (ATF4 luciferase reporter, tunicamycin-treated HEK293T cells). Format: cell-based, human. The conditions noted are these: Homo sapiens, HEK-293T; HEK293T cells carrying the ATF4 luciferase reporter, 1 μg/mL tunicamycin, 7 hours.

Structures are written as SMILES. Where only a bound is given, the exact number is not on record here.

By EC50 is commonly meant the concentration at which the effect is half-maximal. Take `Cc1cc(OCC(=O)NC23CC(NC(=O)COc4ccc(Cl)c(F)c4)(C2)C3)n(C)n1` [Compound 385, 2-(4-chloro-3-fluorophenoxy)-N-(3-{2-[(1,3-dimethyl-1H-pyrazol-5-yl)oxy]acetamido}bicyclo[1.1.1]pentan-1-yl)acetamide]: the concentration giving a half-maximal response (EC50) lay within 500 to 2000 nM.
Take `O=C(COc1ccc(Cl)c(F)c1)NC12CCC(NC(=O)COc3ccc(C(F)(F)F)nc3)(CC1)[C@@H](O)C2` (single isomer, unassigned) [Compound 302]: the concentration giving a half-maximal response (EC50) is under 10 nM.
As to `O=C(COc1ccc(Cl)cc1)NC12CCC(NC(=O)COc3cc(F)c4cn[nH]c4c3)(CC1)CC2` [Compound 739, 2-(4-chlorophenoxy)-N-(4-{2-[(4-fluoro-1H-indazol-6-yl)oxy]acetamido}bicyclo[2.2.2]octan-1-yl)acetamide], the concentration giving a half-maximal response (EC50) is under 10 nM.
With `O=C(COc1ccc(C(F)(F)F)cc1)NC12CCC(NC(=O)COc3ccc(Cl)c(F)c3)(CC1)[C@@H](O)C2` [Compound 468, 2-(4-chloro-3-fluorophenoxy)-N-[(2S)-2-hydroxy-4-{2-[4-(trifluoromethyl)phenoxy]acetamido}bicyclo[2.2.2]octan-1-yl]acetamide] the figure was under 10 nM.
With `O=C(COc1ccc(Cl)cc1)NC12CC(NC(=O)COc3ccc(F)c(Cl)c3)(C1)C2` [Compound 546, 2-(3-chloro-4-fluorophenoxy)-N-{3-[2-(4-chlorophenoxy)acetamido]bicyclo[1.1.1]pentan-1-yl}acetamide] the figure was under 10 nM; with `O=C(COc1ccc(Cl)cc1)NC12CC(NC(=O)COc3ccc4c(c3)OC(F)(F)O4)(C1)C2` [Compound 580, 2-(4-chlorophenoxy)-N-(3-{2-[(2,2-difluoro-2H-1,3-benzodioxol-5-yl)oxy]acetamido}bicyclo[1.1.1]pentan-1-yl)acetamide], under 10 nM.
Consider `O=C(COc1ccc(Cl)c(F)c1)NC12CCC(NC(=O)COc3ccc4c(c3)OC(F)(F)O4)(C1)C2` [Compound 380, 2-(4-chloro-3-fluorophenoxy)-N-(4-{2-[(2,2-difluoro-2H-1,3-benzodioxol-5-yl)oxy]acetamido}bicyclo[2.1.1]hexan-1-yl)acetamide], for which the EC50 lay within 10 to 50 nM.
`N#Cc1cc(OCC(=O)NC23CC(NC(=O)COc4ccc(Cl)c(F)c4)(C2)C3)ccn1` [Compound 277, 2-(4-chloro-3-fluorophenoxy)-N-(3-{2-[(2-cyanopyridin-4-yl)oxy]acetamido}bicyclo[1.1.1]pentan-1-yl)acetamide]: the EC50 was in the range of 250 to 500 nM.
For `O=C(COc1ccc(F)c(Cl)c1)NC12CCC(NC(=O)COc3ccc(Cl)c(F)c3)(CC1)[C@@H](O)C2` [Compound 545, 2-(4-chloro-3-fluorophenoxy)-N-{(2S)-4-[2-(3-chloro-4-fluorophenoxy)acetamido]-2-hydroxybicyclo[2.2.2]octan-1-yl}acetamide], the EC50 was under 10 nM.
With `O=C(COc1ccc(OC(F)F)c(F)c1)NC12CCC(NC(=O)COc3ccc(Cl)c(F)c3)(CC1)[C@@H](O)C2` [Compound 801, 2-(4-chloro-3-fluorophenoxy)-N-[(2S)-4-{2-[4-(difluoromethoxy)-3-fluorophenoxy]acetamido}-2-hydroxybicyclo[2.2.2]octan-1-yl]acetamide], the EC50 was under 10 nM.
As to `COc1ncc(OCC(=O)NC23CCC(NC(=O)COc4ccc(C(F)(F)F)c(F)c4)(CC2)[C@@H](O)C3)cn1` [Compound 633, 2-[3-fluoro-4-(trifluoromethyl)phenoxy]-N-[(2S)-2-hydroxy-4-{2-[(2-methoxypyrimidin-5-yl)oxy]acetamido}bicyclo[2.2.2]octan-1-yl]acetamide], the EC50 fell in the range of 10 to 50 nM.
On to `O=C(COCc1cccc(Cl)c1)NC12CC(NC(=O)COc3ccc(Cl)c(Cl)c3)(C1)C2` [Compound 158, 2-[(3-chlorophenyl)methoxy]-N-{3-[2-(3,4-dichlorophenoxy)acetamido]-bicyclo[1.1.1]pentan-1-yl}acetamide], for which the concentration for a half-maximal effect (EC50) was under 10 nM.
The result for `CCc1cc(C)cc(OCC(=O)NC23CCC(NC(=O)COc4ccc(Cl)c(F)c4)(CC2)C[C@@H]3O)c1` [Compound 494, 2-(4-chloro-3-fluorophenoxy)-N-{(3S)-4-[2-(3-ethyl-5-methylphenoxy)acetamido]-3-hydroxybicyclo[2.2.2]octan-1-yl}acetamide] reads 250 to 500 nM.
Consider `O=C(COc1ccc(F)c(C(F)(F)F)c1)NC12CCC(NC(=O)COc3ccc(Cl)cc3)(CC1)[C@@H](O)C2` [Compound 846, 2-(4-chlorophenoxy)-N-[(2S)-4-{2-[4-fluoro-3-(trifluoromethyl)phenoxy]acetamido}-2-hydroxybicyclo[2.2.2]octan-1-yl]acetamide], for which the half-maximal effective concentration (EC50) was under 10 nM.
Take `COc1cccc(CCC(=O)NC23CC(NC(=O)COc4ccc(Cl)c(F)c4)(C2)C3)c1` [Compound 461, N-{3-[2-(4-chloro-3-fluorophenoxy)acetamido]bicyclo[1.1.1]pentan-1-yl}-3-(3-methoxyphenyl)propanamide]: the EC50 is over 2000 nM.
As to `O=C(COc1ccc(C(F)(F)F)c(F)c1)NC12CCC(NC(=O)COc3ccc4c(c3)OC(F)(F)O4)(CC1)[C@@H](O)C2` [Compound 773, 2-[(2,2-difluoro-2H-1,3-benzodioxol-5-yl)oxy]-N-[(2S)-4-{2-[3-fluoro-4-(trifluoromethyl)phenoxy]acetamido}-2-hydroxybicyclo[2.2.2]octan-1-yl]acetamide], the EC50 is under 10 nM.
The result for `COc1cc(OCC(=O)NC23CCC(NC(=O)COc4ccc(Cl)c(F)c4)(CC2)[C@@H](O)C3)ccc1F` [Compound 794, 2-(4-chloro-3-fluorophenoxy)-N-{(2S)-4-[2-(4-fluoro-3-methoxyphenoxy)acetamido]-2-hydroxybicyclo[2.2.2]octan-1-yl}acetamide] reads under 10 nM; that for `O=C(COc1ccc(Cl)c(F)c1)NC12CC(NCC(=O)c3ccc(Cl)c(F)c3)(C1)C2` [Compound 291, 2-(4-chloro-3-fluorophenoxy)-N-(3-{[2-(4-chloro-3-fluorophenyl)-2-oxoethyl]amino}bicyclo[1.1.1]pentan-1-yl)acetamide], 250 to 500 nM; that for `O=C(COCc1ccc(C(=O)O)cc1)NC12CC(NC(=O)COc3ccc(Cl)c(F)c3)(C1)C2` [Compound 211], over 2000 nM.
For `O=C(COc1ccc(Cl)cc1)NC12CCCC(NC(=O)COc3ccc(Cl)cc3)(C1)C2` [Compound 178, N,N′-(bicyclo[3.1.1]heptane-1,5-diyl)bis[2-(4-chlorophenoxy)acetamide]], the EC50 was over 2000 nM.
The result for `O=C(COc1ccc(Cl)c(F)c1)NC12CCC(=O)C(NC(=O)COc3ccc(Cl)c(F)c3)(CC1)C2` (centres unmarked) [Compound 671, N,N′-(2-oxobicyclo[3.2.1]octane-1,5-diyl)bis[2-(4-chloro-3-fluorophenoxy)acetamide]] reads 500 to 2000 nM; that for `O=C(COc1ccc2c(c1)OC(F)(F)O2)NC12CCC(NC(=O)COc3ccc4c(c3)OC(F)(F)O4)(C1)C2` [Compound 391, N,N′-(bicyclo[2.1.1]hexane-1,4-diyl)bis{2-[(2,2-difluoro-2H-1,3-benzodioxol-5-yl)oxy]acetamide}], 250 to 500 nM.
The result for `O=C(COc1ccc(Cl)c(F)c1)NC12CCC(NC(=O)Oc3ccc(Cl)cc3)(CC1)C(O)C2` (centres unmarked) [Compound 436, 4-chlorophenyl {4-[2-(4-chloro-3-fluorophenoxy)acetamido]-2-hydroxybicyclo[2.2.2]octan-1-yl}carbamate] reads 50 to 250 nM.

Source of the values: patent US20240166652A1, “MODULATORS OF THE INTEGRATED STRESS PATHWAY” (Calico Life Sciences LLC, priority 2017, published 2024).
